How the values were obtained:
[1] = tested on: OVX or ORX Swiss Webster mice; test: Gonadectomized (OVX or ORX) Swiss Webster mice with 60-day slow release pellets: bone and reproductive tissues; assay type: in vivo, mouse
Method: (§1) Osteoblastic cells (A) were isolated from calvaria of neonatal female or male mice, the sex of which was determined by Southern blot analysis of liver DNA with a Y chromosome specific cDNA probe; and cultured as previously described. The ability of the indicated steroids to protect against etoposide induced apoptosis was determined as in FIG. 1D, lower panel. (B) Osteoclasts were generated in bone marrow cultures from adult female or male mice, and then treated with vehicle or the indicated concentrations of steroids for 24 hours at which point the number of cells undergoing apoptosis was determined. Representative results from 1 of 4 females and 1 of 4 males examined are shown. Each point represents the mean of triplicate determinations±SD. *p<0.05 vs. vehicle, by ANOVA. (C & D) Eight-month old Swiss Webster mice (n=8-10 per group) were sham-operated, ovariectomized (OVX) or orchidectomized (ORX). […] BMD and wet uterine or seminal vesicle weight was determined six weeks later. Bars indicate means±SD. *p<0.05 vs OVX or ORX.
FIG. 9 illustrates the equivalence of the skeletal actions of estrogens and androgens in female and male mice. […] Six weeks later, osteoblast apoptosis in histologic sections of the vertebrae (A), osteoblastogenesis and osteoclastogenesis in ex vivo bone marrow cultures (B and C), and serum osteocalcin concentration (D) were determined. Bars indicate means±SD, *p<0.05 vs OVX or ORX.
Global, spine and hindlimb BMD was determined at both 4 and 6 weeks later in the experiment with the 8 month old females, and at 6 weeks only in the experiments with the 6 month old females and males (A, B and C). The 6 week BMD data in females (B) represent pooled values from the two experiments with the 6- and the 8-month old mice.
Longitudinal undecalcified sections of the distal femur are shown in (B). […] Osteoblast apoptosis in sections of L1-L4 vertebrae from females (8 month old) and males (C).
Histomorphometric analysis of L1-L4 vertebrae from 6 month old females (A-F) and pooled serum osteocalcin levels from the 6 and 8 month old females (G). […] The ANGELS compounds described herein are useful for maintaining and/or increasing bone mass and/or strength and/or density in mammals. Mammals, preferably humans, in need of such compounds can include those suffering from such conditions as female osteoporosis (post menopausal), male osteoporosis, glucocorticoid-induced osteoporosis, immobilization and aging-related osteoporosis, idiopathic or juvenile osteoporosis, transplantation-related osteoporosis, and alveolar ridge bone loss. In addition, the compounds described herein are particularly useful for administration to subjects that are unable or unwilling to tolerate therapies that have a masculinizing or feminizing effect. For example, subjects such as breast cancer patients (especially those with bone metastasis on gonadotropin […] hormone (GnRH) or ovariectomized), prostrate cancer patients (especially those on GnRH/castration therapy), and myeloma/lymphoma patients are frequently poor candidates for treatment with estrogen or androgens because of the risk of a recurrence of the underlying condition, e.g., cancer.
Wet uterine (A) or seminal vesicle weight (B) of female and male mice described in FIG. 11. […] Note the following morphologic differences in the uteri of OVX- and OVX+4-estren-3α,17β-diol-treated mice as compared to uteri from sham-operated and OVX+E2-treated mice: thin and atrophic columnar epithelium; compact stroma; decreased number of glands; decreased nucleus to cytoplasmic ratio in the columnar epithelial, endometrial stroma, and myometrial cells; and absence of mitotic activity. (D) Proliferation of MCF-7 cells was determined by ^3H-thymidine uptake.
For these studies, mature Swiss Webster mice (8 month old), n=8-10 per group, were sham-operated or gonadectomized (GNDX). […]

[2] = tested on: calvaria-derived murine osteoblastic cells; test: Etoposide-induced apoptosis of calvaria-derived osteoblastic cells; assay type: cell-based, mouse
Description: HeLa cells were co-transfected with reporter constructs in which SRE or AP-1 drive the expression of secreted alkaline phosphatase (SEAP), along with the wild type ERα (A and B); or its ligand binding domain (E), or E fused to a membrane (E-Mem) or nuclear (E-Nuc) localization sequence (A). A dominant negaitve (dn) MEK or dn Jnk were also introduced into a subset of the ERα transfected cells. […] In FIGS. 1A and 1B, 100% indicates activity in vehicle treated cells. (C) HeLa cells were co-transfected with the ERα and nEGFP and wild type or dn mutants of the indicated transcription factors. […] (D) HeLa cells (upper panel) were transiently co-transfected with the ERα, a nonphosphorylatable dn mutant of Bad. Calvaria-derived murine osteoblastic cells (lower panel) were pre-treated with the P13K inhibitor wortmannin. Cells were then treated as in (C). […] (E) Proposed model for a kinase-mediated non-genotropic regulation of gene transcription and apoptosis by sex steroids.
as §1
(§2) Quantification of apoptotic cells in vitro: Apoptosis of HeLa cells or calvaria-derived osteoblastic cells was quantified by direct visualization of changes in nuclear morphology or by trypan blue staining, respectively, as previously described (Kousteni et al, 2001). Apoptosis of osteoclasts, derived from bone marrow cells cultured with 30 ng/ml M-CSF and 30 ng/ml soluble RANK ligand, was quantified by measuring caspase 3 activity as previously described (Weinstein et al, 2002).

[3] = tested on: osteoclasts generated in bone marrow cultures from adult female or male mice; test: Osteoclast apoptosis in bone marrow derived cultures; assay type: cell-based, mouse
Method: as §1
FIG. 8 illustrates the pro-apoptotic effect of sex steroids on osteoclasts requires Src/ERK signaling. […] After 24 hours, the percentage of apoptotic osteoclasts was determined as in FIG. 7.
as §2

[4] = histomorphometry of lumbar vertebrae L1-L4, OVX females

`C[C@]12CC[C@H]3[C@@H](CCC4=C[C@H](O)CC[C@@H]43)[C@@H]1CC[C@@H]2O` [4-estren-3α,17β-diol] was tested, and the body weight ([1]; 7.6 mg per 60 day slow release pellet) was “no effect”, the “effect on the bone marrow cavity” value ([1]; 4-estren-3α,17β-diol 7.6 mg pellet, E2 pharmacologic dose 100× the replacement dose) was “no adverse effects” and the “longitudinal undecalcified sections of the distal femur” value ([1]; 4-estren-3α,17β-diol at 300× ERT versus vehicle or E2 1× ERT, E2 at 100× ERT) was “increased cortical and trabecular width”. The “bone compression strength in the vertebrae, male mice” value ([1]; L5, ORX) was “equally effective”, the “bone compression strength in the vertebrae, female mice” value ([1]; L5, compared to mice receiving E2) was “greater than in mice receiving E2” and the “BMD in ORX mice compared to DHT replacement” value ([1]; ORX males, 7.6 mg pellet) was “at least as effective if not superior”. For the same compound, the “BMD values in the spine versus the untreated ORX group” value ([1]; ORX males, 6 weeks) was “significantly higher”, the seminal vesicle weight ([1]; ORX males, pellets E2 0.025 mg or 4-estren-3α,17β-diol 7.6 mg) was “no effect” and the “histologic analysis of the uterus” value ([1]; OVX females) was “lack of an effect”. The wet uterine weight ([1]; OVX females, pellets DHT 10 mg or 4-estren-3α,17β-diol 7.6 mg) was “no effect”, the “BMD change in the hindlimb” value ([1]; OVX mice, compared to OVX+E2 replacement and to estrogen replete sham controls) was “greater BMD change” and the “global and spinal BMD in females” value ([1]; OVX, 7.6 mg pellet versus E2 replacement) was “as effective, if not superior to estradiol”. The osteoclast number ([1]; as compared to the OVX group) was “suppressed”, the “rate of bone formation” value ([1]; as compared to the OVX group) was “suppressed” and the “prevalence of osteoblast and osteocyte apoptosis in the lumbar vertebrae” value ([1]; gonadectomized females or males) was “prevented the increased prevalence”. The “cortical width, greater compared to OVX mice treated with E2” value [1, 4] was 27.8%, the “number of osteoblasts on the trabeculae, greater than in the E2-treated group” value [1, 4] was 319% and the “osteoid perimeter, increase versus E2-treated group” value [1, 4] was 270%. The “trabecular width, greater compared to OVX mice treated with E2” value [1, 4] was 33.9%, the serum osteocalcin ([1]; two separate experiments, compared to OVX+E2 and to estrogen replete sham controls) was “significantly higher” and the “difference in potency in osteoblasts from one sex versus the other” value ([2]; cell preparations from females or males) was “no difference”. For the same compound, the “etoposide-induced apoptosis in primary cultures of osteoblasts” value ([2]; cells from female or male mice, dose dependent manner) was “attenuated etoposide-induced apoptosis” and the “difference in potency in osteoclasts from females and males” value [3] was “no difference”.

Reference: patent US20030119800A1, “Bone anabolic compounds and methods of use” (priority 2001, published 2003)
